Measurements: patent US9182397B2, “Immunoassay for detecting antibiotics” (DSM IP ASSETS B.V., priority 2011, dated 2015)

Assays:
[1] = system: Penicillin binding protein purified from Bacillus stearothermophilus; test: Lateral flow test strip, penicillin G in spiked milk (Example 3); parameters: key to Intensity of the detection zone: 0: no intensity; 1: low intensity; 2: medium intensity; 3: high intensity
Experimental: (§1) A nitrocellulose HF90 membrane (Millipore; length 25 mm) was used as a detection region. The membrane was glued to a polystyrene laminated card (thickness 0.254 mm) 8 mm from the proximal end of the card. Next, the detection zone and control zone were applied onto the nitrocellulose membrane. The detection zone was applied by dispensing 1 mg/ml of a 7ACA-spacer-BSA conjugate in 20 mM KPO4-buffer (pH 7.5) with a Biodot Dispense workstation XYZ 3050 with frontline at 0.2 μl/cm. The control zone was applied by dispensing 0.15 mg/ml of an anti-IgY antibody in 20 mM KPO4-buffer (pH 7.5) comprising 0.675 mg/ml BSA, 5% w/v saccharose and 20 mM NaCl with a Biodot Dispense workstation XYZ 3050 with frontline at 0.8 μl/cm. After drying of the zones, the nitrocellulose membrane was blocked by spraying a solution comprising 10 mM Tris buffer (pH 8) comprising 2% w/v BSA and 0.05% w/v Tween-20 using a Biodot Dispense workstation XYZ 3050 with airjet 3×. The solution was sprayed onto the membrane at a distance of 2 mm below the detection zone. Thereafter, the sample receiving region (VF2 membrane from Millipore; length 1 cm) was glued at the proximal end of the card overlapping 2 mm with the nitrocellulose membrane. The absorbing region (10038 membrane from Millipore; length 20 mm) was glued at the distal end of the card with an overlap of 2 mm on the nitrocellulose membrane. The obtained cards were dried at 37° C. in a dry atmosphere (0% relative humidity). The card was cut in strips of 5.2 mm width and kept at a dry atmosphere (0% relative humidity).
(§2) Streptavidin-coated gold particles were synthesized by reacting colloidal gold (diameter 40 nm; 1 OD/ml) with 10 μg/ml streptavidin. Next, the obtained solution was concentrated by tangential flow filtration, washed and stored in a Tris buffer (pH 8) including NaCN. Penicillin binding protein purified from Bacillus stearothermophilus was biotinylated (1:4) with D-biotinyl-epsilon-aminocaproic acid-N-hydroxysuccinimide ester. Next, the penicillin binding protein-gold conjugate was synthesized by reacting 1.5 μg biotinylated penicillin binding protein with 1 OD streptavidin-coated gold particles for 1 hour, followed by centrifugation at 10,000×g for 5 minutes and resuspension of the obtained pellet in 45 mM bicarbonate buffer comprising 0.1% w/v Triton X-100 (pH 9.6).
IgY-coated gold particles were synthesized by reacting colloidal gold (diameter 40 nm; 1 OD/ml with 10 μg/ml IgY. Next, the obtained solution was centrifuged at 7,500×g for 10 minutes and the obtained pellet was resuspended in a Tris buffer (pH 8), washed by another round of centrifugation and resuspension of the obtained pellet in a Tris buffer (pH 8) and stored in a Tris-buffer (pH 8) including NaCN.
(§3) Thereafter, 140-200 mOD of the penicillin binding protein-gold conjugate and 5-20 mOD of the IgY-gold conjugate was solubilized in 100 μl buffer (80 mM Tris buffer comprising 0.01% w/v Triton-X-100, 0.4% w/v BSA, 5% v/v glycerin and 2% w/v saccharose (pH 8.5)) and 0.75 μl of the solution was dispensed per tube and dried for 12 hours at 40° C. The obtained tubes were sealed.
(§4) 150 μl of spiked milk was added per tube containing the dried conjugates. The concentration of penicillin G in the added milk varied from 0 to 4 ng/g (tube 1: 0 ng/g; […]; tube 2: 2 ng/g; tube 3: 3 ng/g; and tube 4: 4 ng/g). The obtained liquid composition was incubated for 2 minutes at 64° C. in an incubator. A test device was put into the tube and incubated for 3 minutes at 64° C. in the incubator. The result was read by eye.

[2] = system: Penicillin binding protein purified from Bacillus stearothermophilus; test: Detection of Penicillin G in different dairy matrices (Example 24); parameters: key: 0: no intensity; 1: low intensity; 2: medium intensity; 3: high intensity
Experimental: as §1, §2, §3, §4
The test was done essentially as described in Example 3. Instead of raw milk, different dairy matrices were tested. All liquid matrices were measured as such and all powders were first dispersed in water. For milk powder 20 g was dispersed in 250 g distilled water and for whey powder 7.1 g was dispersed in 100 g distilled water.

[3] = system: Penicillin binding protein purified from Bacillus stearothermophilus; test: Detection of Penicillin G, test done at different temperatures (Example 29); parameters: key: 0: no intensity; 1: low intensity; 2: medium intensity; 3: high intensity
Experimental: as §1, §2, §3, §4
The test was done essentially as described in Example 3, with the proviso that the test was done at different temperatures (4° C., 20° C. or 31.5° C.).

Structure (SMILES): CC1(C)S[C@@H]2[C@H](NC(=O)Cc3ccccc3)C(=O)N2[C@H]1C(=O)O [Penicillin G]
- Intensity of the detection zone compared with the intensity of the control zone ([1]; Penicillin G 1 ng/g in milk): clearly higher
- Intensity of the detection zone ([1]; Penicillin G 1 ng/g in spiked milk, read by eye): 3
- Signal intensity of the detection zone compared with the signal intensity of the control zone ([1]; Penicillin G 2 ng/g in milk): similar
- Intensity of the detection zone ([1]; Penicillin G 2 ng/g in spiked milk, read by eye): 2
- Signal intensity of the detection zone compared with the signal intensity of the control zone ([1]; Penicillin G 3 ng/g in milk): similar
- Intensity of the detection zone ([1]; Penicillin G 3 ng/g in spiked milk, read by eye): 2
- Intensity of the detection zone compared with the intensity of the control zone ([1]; Penicillin G 4 ng/g in milk): significantly lower
- Intensity of the detection zone ([1]; Penicillin G 4 ng/g in spiked milk, read by eye): 1
- Concentration in the milk at which the signal of the detection zone clearly was less intense ([1]; spiked milk, read by eye): ≥ 2 ng/g
- Intensity of detection zone ([2]; Pen G 3 ppb, Cocoa): 2
- Intensity of detection zone ([2]; Pen G 3 ppb, Cream 10%): 2
- Intensity of detection zone ([2]; Pen G 3 ppb, Cream 40%): 2
- Intensity of detection zone ([2]; Pen G 3 ppb, Frozen raw buffalo milk (0 ppb gave 1)): 1
- Intensity of detection zone ([2]; Pen G 3 ppb, Frozen raw goat milk (0 ppb gave 1)): 1
- Intensity of detection zone ([2]; Pen G 3 ppb, Frozen raw milk): 2
- Intensity of detection zone ([2]; Pen G 3 ppb, Frozen raw sheep milk (0 ppb gave 1)): 1
- Intensity of detection zone ([2]; Pen G 3 ppb, Low fat UHT milk): 2
- Intensity of detection zone ([2]; Pen G 3 ppb, Low fat processed milk): 2
- Intensity of detection zone ([2]; Pen G 3 ppb, Milk powder (20 g dispersed in 250 g distilled water)): 2
- Intensity of detection zone ([2]; Pen G 3 ppb, Pasteurized milk): 2
- Intensity of detection zone ([2]; Pen G 3 ppb, UHT milk): 2
- Intensity of detection zone ([2]; Pen G 3 ppb, Whey pH 4.5 (0 ppb and control zone gave 0)): 0
- Intensity of detection zone ([2]; Pen G 3 ppb, Whey powder (7.1 g dispersed in 100 g distilled water)): 2
- Intensity of detection zone ([2]; Pen G 4 ppb, Cocoa): 1
- Intensity of detection zone ([2]; Pen G 4 ppb, Cream 10%): 1
- Intensity of detection zone ([2]; Pen G 4 ppb, Cream 40%): 2
- Intensity of detection zone ([2]; Pen G 4 ppb, Frozen raw buffalo milk (0 ppb gave 1)): 0
- Intensity of detection zone ([2]; Pen G 4 ppb, Frozen raw goat milk (0 ppb gave 1)): 0
- Intensity of detection zone ([2]; Pen G 4 ppb, Frozen raw milk): 1
- Intensity of detection zone ([2]; Pen G 4 ppb, Frozen raw sheep milk (0 ppb gave 1)): 0
- Intensity of detection zone ([2]; Pen G 4 ppb, Low fat UHT milk): 1
- Intensity of detection zone ([2]; Pen G 4 ppb, Low fat processed milk): 1
- Intensity of detection zone ([2]; Pen G 4 ppb, Milk powder (20 g dispersed in 250 g distilled water)): 1
- Intensity of detection zone ([2]; Pen G 4 ppb, Pasteurized milk): 1
- Intensity of detection zone ([2]; Pen G 4 ppb, UHT milk): 1
- Intensity of detection zone ([2]; Pen G 4 ppb, Whey pH 4.5 (0 ppb and control zone gave 0)): 0
- Intensity of detection zone ([2]; Pen G 4 ppb, Whey powder (7.1 g dispersed in 100 g distilled water)): 1
- Intensity of detection zone ([3]; Pen G 3 ppb, test done at temperature 4 ° C.): 2
- Intensity of detection zone ([3]; Pen G 3 ppb, test done at temperature 20 ° C.): 2
- Intensity of detection zone ([3]; Pen G 3 ppb, test done at temperature 31.5 ° C.): 2
- Intensity of detection zone ([3]; Pen G 4 ppb, test done at temperature 4 ° C.): 1
- Intensity of detection zone ([3]; Pen G 4 ppb, test done at temperature 20 ° C.): 1
- Intensity of detection zone ([3]; Pen G 4 ppb, test done at temperature 31.5 ° C.): 1
